Measured values published in ChEMBL document CHEMBL6096648, “Discovery of phenazine derivatives as a new class of non-classical ferroptosis inhibitors and efficacy evaluation on a mouse model of liver injury” (Eur J Med Chem, 2025).
Activity calls are given as the source filed them. The calls are words filed in the database; no cut-off is given here.

What was measured:
[1] = system: LX-2; test: Inhibition of erastin-induced ferroptosis in human LX2 cells assessed as increase in cell viability incubated for 48 hrs in presence of erastin by MTT assay; format: functional, cell-based; settings: LX-2, 48 h
[2] = system: ES-2; test: Inhibition of erastin-induced ferroptosis in human ES2 cells assessed as increase in cell viability incubated for 48 hrs in presence of erastin by MTT assay; format: functional, cell-based; settings: ES-2, 48 h
[3] = system: ES-2; test: Inhibition of erastin-induced ferroptosis in human ES2 cells assessed as DMT1 protein expression at 0.01 to 1 uM incubated for 8 to 10 hrs by western blot analysis; format: functional, cell-based; settings: dose 0.01-1 µM, time 8-10 hrs
[4] = system: ES-2; test: Inhibition of erastin-induced ferroptosis in human ES2 cells assessed as FPN protein expression at 0.01 to 1 uM incubated for 8 to 10 hrs by western blot analysis; format: functional, cell-based; settings: dose 0.01-1 µM, time 8-10 hrs
[5] = system: ES-2; test: Inhibition of erastin-induced ferroptosis in human ES2 cells assessed as FACL4 protein expression at 0.01 to 1 uM incubated for 8 to 10 hrs by western blot analysis; format: functional, cell-based; settings: dose 0.01-1 µM, time 8-10 hrs
[6] = system: ES-2; test: Inhibition of ferritinophagy in erastin-stimulated human ES2 cells assessed as increase in FTL gene expression at 0.01 to 1 uM by qRT-PCR analysis; format: functional, cell-based; settings: dose 0.01-1 µM
[7] = system: ES-2; test: Inhibition of erastin-induced ferroptosis in human ES2 cells assessed as inhibition of lipid peroxidation by measuring decrease in MDA content at 0.01 uM measured after 8 to 10 hrs; format: functional, cell-based; settings: time 8-10 hrs
[8] = system: ES-2; test: Inhibition of ferritinophagy in erastin-stimulated human ES2 cells assessed as increase in ferritin protein expression incubated for 8 to 10 hrs by western blot analysis; format: functional, cell-based; settings: dose 0.01-1 µM, time 8-10 hrs
[9] = system: Mus musculus; test: Protection against APAP-induced acute liver injury C57BL/6 mouse model assessed as decrease in serum AST content at 3 mg/kg, ip administered 2 hrs prior to APAP injection and measured after 6 hrs; format: functional, organism-based; settings: time 8.0 hrs
[10] = Metal chelating activity assessed as compound-Fe2+ complex formation at 10 uM incubated for 5 mins by ferrozine-based colorimetric assay
[11] = system: ES-2; test: Inhibition of erastin-induced ferroptosis in human ES2 cells assessed as reduction in cytosolic ROS accumulation at 0.01 to 1 uM measured after 8 to 10 hrs by DCFH-DA staining based fluorescence analysis; format: functional, cell-based; settings: dose 0.01-1 µM, time 8-10 hrs
[12] = system: ES-2; test: Inhibition of ferritinophagy in erastin-stimulated human ES2 cells assessed as increase in FTH1 gene expression at 0.01 to 1 uM by qRT-PCR analysis; format: functional, cell-based; settings: dose 0.01-1 µM
[13] = system: ES-2; test: Inhibition of erastin-induced ferroptosis in human ES2 cells assessed as xCT protein expression at 0.01 to 1 uM incubated for 8 to 10 hrs by western blot analysis; format: functional, cell-based; settings: dose 0.01-1 µM, time 8-10 hrs
[14] = Potency index, ratio of ferrostatin-1 EC50 to test compound EC50 for inhibition of erastin-induced ferroptosis in human ES2 cells; format: functional, ES-2
[15] = system: THP-1; test: Inhibition of LPS/nigericin-stimulated pyroptosis in PMA-differentiated human THP-1 cells assessed as cell viability at 10 uM treated with LPS for 4 hrs followed by incubation with compound and nigericin for 30 mins by MTT assay; format: functional, cell-based
[16] = system: Mus musculus; test: Protection against APAP-induced acute liver injury C57BL/6 mouse model assessed as decrease in serum ALT content at 3 mg/kg, ip administered 2 hrs prior to APAP injection and measured after 6 hrs; format: functional, organism-based; settings: time 8.0 hrs
[17] = system: Mus musculus; test: Protection against APAP-induced acute liver injury C57BL/6 mouse model assessed as decrease in liver tissue damage at 3 mg/kg, ip administered 2 hrs prior to APAP injection and measured after 6 hrs by Hematoxylin-Eosin staining based analysis; format: functional, organism-based; settings: time 8.0 hrs
[18] = system: HT-29; test: Inhibition of TNF-alpha/Smac-mimetic/Z-VAD-FMK-induced necrosis in human HT-29 cells assessed as cell viability at 10 uM incubated for 24 hrs in presence of TNF-alpha/Smac-mimetic/Z-VAD-FMK by MTT assay; format: functional, cell-based
[19] = system: ES2; test: Effect on ERK1/2 phoshorylation in erastin-stimulated human ES2 cells at 0.01 to 1 uM incubated for 8 to 10 hrs by western blot analysis; format: cell-based; settings: dose 0.01-1 µM, time 8-10 hrs
[20] = system: ES-2; test: Inhibition of ferritinophagy in erastin-stimulated human ES2 cells assessed as increase in NCOA4 gene expression at 0.01 to 1 uM by qRT-PCR analysis; format: functional, cell-based; settings: dose 0.01-1 µM
[21] = system: ES-2; test: Inhibition of erastin-induced ferroptosis in human ES2 cells assessed as NRF2 protein expression at 0.01 to 1 uM incubated for 8 to 10 hrs by western blot analysis; format: functional, cell-based; settings: dose 0.01-1 µM, time 8-10 hrs
[22] = Antioxidant activity assessed as DPPH radical scavenging activity at 1 to 50 uM incubated for 10 mins by DPPH assay; format: functional; settings: dose 1-50 µM
[23] = system: ES-2; test: Inhibition of erastin-induced ferroptosis in human ES2 cells assessed as ERK protein expression at 0.01 to 1 uM incubated for 8 to 10 hrs by western blot analysis; format: functional, cell-based; settings: dose 0.01-1 µM, time 8-10 hrs
[24] = system: ES-2; test: Inhibition of erastin-induced ferroptosis in human ES2 cells assessed as TFR1 protein expression at 0.01 to 1 uM incubated for 8 to 10 hrs by western blot analysis; format: functional, cell-based; settings: dose 0.01-1 µM, time 8-10 hrs
[25] = system: ES-2; test: Inhibition of erastin-induced ferroptosis in human ES2 cells assessed as increase in intracellular GSH content at 0.01 to 1 uM measured after 8 to 10 hrs; format: functional, cell-based; settings: dose 0.01-1 µM, time 8-10 hrs
[26] = system: Mus musculus; test: Protection against APAP-induced acute liver injury C57BL/6 mouse model assessed as decrease in liver MDA content at 3 mg/kg, ip administered 2 hrs prior to APAP injection and measured after 6 hrs; format: functional, organism-based; settings: time 8.0 hrs
[27] = system: ES-2; test: Inhibition of ferritinophagy in erastin-stimulated human ES2 cells assessed as increase in NCOA4 protein expression incubated for 8 to 10 hrs by western blot analysis; format: functional, cell-based; settings: dose 0.01-1 µM, time 8-10 hrs
[28] = system: ES-2; test: Inhibition of erastin-induced ferroptosis in human ES2 cells assessed as GPX4 protein expression at 0.01 to 1 uM incubated for 8 to 10 hrs by western blot analysis; format: functional, cell-based; settings: dose 0.01-1 µM, time 8-10 hrs
[29] = system: ES-2; test: Inhibition of staurosporine-induced apoptosis in human ES2 cells assessed as cell viability at 10 uM incubated for 24 hrs in presence of staurosporine by MTT assay; format: functional, cell-based
[30] = system: ES-2; test: Inhibition of erastin-induced ferroptosis in human ES2 cells assessed as increase in intracellular GSH content at 1 uM measured after 8 to 10 hrs; format: functional, cell-based; settings: time 8-10 hrs

## FC(F)(F)c1ccccc1-c1noc(-c2cccc3nc4ccccc4nc23)n1
[1]
  EC50: 15 nM
[2]
  EC50: 39 nM

## CC(C)c1noc(-c2cccc3nc4ccccc4nc23)n1
[2]
  EC50: 136 nM

## CC(C)(C)c1cccc(-c2noc(-c3cccc4nc5ccccc5nc34)n2)c1
[1]
  EC50: 7 nM
[2]
  EC50: 3 nM

## Cc1noc(-c2cccc3nc4ccccc4nc23)n1
[2]
  EC50: 268 nM

## c1ccc(-c2noc(-c3cccc4nc5ccccc5nc34)n2)cc1
[2]
  EC50: 4 nM

## Fc1ccc(-c2noc(-c3cccc4nc5ccccc5nc34)n2)cc1F
[1]
  EC50: 11 nM
[2]
  EC50: 9 nM

## COc1ccccc1-c1noc(-c2cccc3nc4ccccc4nc23)n1
[1]
  EC50: 5 nM
[2]
  EC50: 13 nM

## c1ccc2nc3c(-c4nc(-c5ccncc5)no4)cccc3nc2c1
[2]
  EC50: 7 nM

## c1ccc2nc3c(-c4nc(-c5nccs5)no4)cccc3nc2c1
[2]
  EC50: 6 nM

## Cc1cccc(-c2noc(-c3cccc4nc5ccccc5nc34)n2)c1
[1]
  EC50: 4 nM
[2]
  EC50: 7 nM

## c1ccc2nc3c(-c4nc(C5CC5)no4)cccc3nc2c1
[2]
  EC50: 214 nM

## FC(F)(F)c1cccc(-c2noc(-c3cccc4nc5ccccc5nc34)n2)c1
[1]
  EC50: 13 nM
[2]
  EC50: 2 nM

## CC(C)(C)c1noc(-c2cccc3nc4ccccc4nc23)n1
[2]
  EC50: 604 nM

## FC(F)(F)Oc1cccc(-c2noc(-c3cccc4nc5ccccc5nc34)n2)c1
[1]
  EC50: 14 nM
[2]
  EC50: 6 nM

## Cc1ccc(-c2noc(-c3cccc4nc5ccccc5nc34)n2)cc1
[1]
  EC50: 2 nM
[2]
  EC50: 130 nM

## Fc1ccc(-c2noc(-c3cccc4nc5ccccc5nc34)n2)cc1
[1]
  EC50: 2 nM
[2]
  EC50: 2 nM

## c1ccc2nc3c(-c4nc(-c5ccc(N6CCOCC6)cc5)no4)cccc3nc2c1
[1]
  EC50: 1 nM
[2]
  EC50: 1 nM

## CCOc1ccccc1-c1noc(-c2cccc3nc4ccccc4nc23)n1
[1]
  EC50: 10 nM
[2]
  EC50: 23 nM

## Fc1ccccc1-c1noc(-c2cccc3nc4ccccc4nc23)n1
[1]
  EC50: 1 nM
[2]
  EC50: 5 nM

## c1cc(CN2CCCCC2)cc(-c2noc(-c3cccc4nc5ccccc5nc34)n2)c1
[3]
  inhibition: inactive
[4]
  inhibition: inactive
[5]
  inhibition: inactive
[1]
  EC50: 0.925 nM
[6]
  inhibition: Active
[7]
  inhibition: Active
[8]
  inhibition: Dose-dependent-effect
[9]
  Activity: Active
[10]
  Activity: inactive
[11]
  inhibition: Active
[12]
  inhibition: Active
[13]
  inhibition: inactive
[14]
  Ratio EC50: 1000
[15]
  inhibition: inactive
[2]
  EC50: 0.712 nM
[16]
  Activity: Active
[17]
  Activity: Active
[18]
  inhibition: inactive
[19]
  Activity: inactive
[20]
  inhibition: Active
[21]
  inhibition: inactive
[22]
  Activity: inactive
[23]
  inhibition: inactive
[24]
  inhibition: inactive
[25]
  inhibition: inactive
[26]
  Activity: Active
[27]
  inhibition: Dose-dependent-effect
[28]
  inhibition: inactive
[29]
  inhibition: inactive

## c1ccc2nc3ccccc3nc2c1 [PHENAZINE]
[2]
  EC50: 2820 nM

## Fc1cccc(-c2noc(-c3cccc4nc5ccccc5nc34)n2)c1
[1]
  EC50: 2 nM
[2]
  EC50: 2 nM

## CN(C)c1cccc(-c2noc(-c3cccc4nc5ccccc5nc34)n2)c1
[1]
  EC50: 2 nM
[2]
  EC50: 1 nM

## CCOC(=O)c1ccc(NC2CCCCC2)c(N)c1
[1]
  EC50: 67 nM
[15]
  inhibition: inactive
[2]
  EC50: 70.1 nM
[18]
  inhibition: inactive
[30]
  inhibition: inactive
[29]
  inhibition: inactive

## c1ccc2nc3c(-c4nc(-n5cccn5)no4)cccc3nc2c1
[2]
  EC50: 143 nM

## Brc1cccc(-c2noc(-c3cccc4nc5ccccc5nc34)n2)c1
[1]
  EC50: 6 nM
[2]
  EC50: 2 nM

## Cc1ccccc1-c1noc(-c2cccc3nc4ccccc4nc23)n1
[1]
  EC50: 10 nM
[2]
  EC50: 13 nM

## CC(C)(C)c1ccc(-c2noc(-c3cccc4nc5ccccc5nc34)n2)cc1
[1]
  EC50: 13 nM
[2]
  EC50: 11 nM

## FC(F)(F)c1ccc(-c2noc(-c3cccc4nc5ccccc5nc34)n2)cc1
[1]
  EC50: 32 nM
[2]
  EC50: 3 nM

## c1ccc(-c2noc(-c3cccc4nc5ccccc5nc34)n2)nc1
[2]
  EC50: 131 nM

## c1cncc(-c2noc(-c3cccc4nc5ccccc5nc34)n2)c1
[2]
  EC50: 240 nM
